Like-named read-outs stand apart in the source and are kept apart here.
Tests used:
Type in all cases: in vivo
[1] = system: Verconica persica (VERPE); experiment: Post-emergence herbicidal action against VERPE
Outline: (§1)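 Rates were 320 g/ha or below, applied as aqueous WP/EC spray with 0.5% additive (600 l/ha) onto one-leaf-stage plants. About 3 weeks later in the greenhouse, damage was scored visually against untreated plants on a 0–100% scale, where 100% means plants died.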

[2] = system: Abutilon theophrasti (ABUTH); experiment: Post-emergence herbicidal action against ABUTH; conditions: 320 g/ha, visual rating about 3 weeks after treatment vs untreated controls (100% = plants have died, 0% = like control plants)
Outline: as §1

[3] = system: Viola tricolor (VIOTR); experiment: Post-emergence herbicidal action against VIOTR
Outline: as §1

[4] = system: Zea mays (ZEAMX); conditions: for Post-emergence action against ZEAMX in % (crop plant compatibility): 20 g/ha, effect in comparison to untreated controls; for Post-emergence action against ZEAMX in %: crop plant compatibility, effect vs untreated controls
Outline: (§2)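 Greenhouse crops in sandy loam sprayed post-emergence at the one-leaf stage, 2–3 weeks after sowing, with WP or EC formulations in water plus 0.5% additive at 600 l/ha. Damage rated visually about 3 weeks later versus untreated controls (0% = like control, 100% = dead); suffixes a–c denote different doses.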

[5] = system: Triticum aestivum (TRZAS); conditions: crop plant compatibility, effect vs untreated controls
Outline: as §2

[6] = system: Verconica persica (VERPE); experiment: Pre-emergence herbicidal action against VERPE; conditions: dosage 320 g/ha
Outline: (§3)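 Application rates ran to 320 g/ha or lower, with several dosages tested on the same weeds. The compound, as wettable powder or emulsion concentrate, is sprayed pre-emergence onto soil over sown seeds; greenhouse growth follows, and effect is rated visually after roughly 3 weeks.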

[7] = system: Polygonum convolvulus (POLCO); experiment: Pre-emergence herbicidal action against POLCO; conditions: dosage 320 g/ha
Outline: as §3

[8] = system: Oryza sativa (ORYSA); conditions: crop plant compatibility
Outline: as §2

[9] = system: Viola tricolor (VIOTR); experiment: Pre-emergence herbicidal action against VIOTR; conditions: 320 g/ha, Viola tricolor
Outline: as §3

[10] = system: Amaranthus retroflexus (AMARE); experiment: Pre-emergence herbicidal action against AMARE; conditions: 320 g/ha, visual scoring after about 3 weeks vs untreated controls
Outline: as §3

[11] = system: Echinochloa crus-galli (ECHCG); experiment: Pre-emergence herbicidal action against ECHCG; conditions: dosage 320 g/ha
Outline: as §3

[12] = system: Echinochloa crus-galli (ECHCG); experiment: Post-emergence herbicidal action against ECHCG; conditions: dosage 320 g/ha
Outline: as §1

[13] = system: Avena fatua (AVEFA); experiment: Post-emergence herbicidal action against AVEFA; conditions: 320 g/ha, visual rating about 3 weeks after treatment
Outline: as §1

[14] = system: Alopecurus myosuroides (ALOMY); experiment: Post-emergence herbicidal action against ALOMY; conditions: 320 g/ha, visual rating about 3 weeks after treatment vs untreated controls (100% = plants have died, 0% = like control plants)
Outline: as §1

[15] = system: Amaranthus retroflexus (AMARE); experiment: Post-emergence herbicidal action against AMARE; conditions: 320 g/ha, visual rating about 3 weeks after treatment
Outline: as §1

[16] = system: Setaria viridis (SETVI); experiment: Post-emergence herbicidal action against SETVI; conditions: dosage 320 g/ha
Outline: as §1

[17] = system: Polygonum convolvulus (POLCO); experiment: Post-emergence herbicidal action against POLCO
Outline: as §1

[18] = system: Pharbitis purpurea (PHBPU); experiment: Post-emergence herbicidal action against PHBPU; conditions: dosage 320 g/ha
Outline: as §1

[19] = system: Lolium rigidum (LOLRI); experiment: Post-emergence herbicidal action against LOLRI; conditions: dosage 320 g/ha
Outline: as §1

[20] = 80 g/ha, effect in comparison to untreated controls
[21] = 320 g/ha, effect in comparison to untreated controls
[22] = 20 g/ha, effect vs untreated controls

O=C(O)COc1nn(-c2ccccn2)c(-c2ccc(F)nc2)c1C1CC1(F)F (stereo not shown) [Example I-249]
20%: Post-emergence action against ZEAMX in % ([4]; 80 g/ha)
80%: Post-emergence action against VERPE in % ([1]; 320 g/ha, VERPE) | Post-emergence action against ABUTH in % [2] | Post-emergence action against VIOTR in % ([3]; 80 g/ha) | Post-emergence action against VIOTR in % ([3]; 320 g/ha)
0%: Post-emergence action against ZEAMX in % (crop plant compatibility) [4] | Post-emergence action against TRZAS in % ([5]; 20 g/ha) | Post-emergence action against TRZAS in % ([5]; 80 g/ha) | Post-emergence action against TRZAS in % ([5]; 320 g/ha)

COC(=O)CNC(=O)COc1nn(-c2ncccc2C(F)(F)F)c(-c2cncc(F)c2)c1Br [Example I-205]
10%: Post-emergence action against ORYSA in % [8, 21] | Post-emergence action against TRZAS in % ([5]; 80 g/ha) | Post-emergence action against TRZAS in % ([5]; 320 g/ha)
0%: Post-emergence action against ORYSA in % [8, 20] | Post-emergence action against ZEAMX in % ([4]; 80 g/ha) | Post-emergence action against ZEAMX in % ([4]; 320 g/ha)
80%: Pre-emergence action against POLCO in % [7] | Pre-emergence action against AMARE in % [10] | Pre-emergence action against ECHCG in % [11]
100%: Pre-emergence action against VERPE in % [6] | Pre-emergence action against VIOTR in % [9]

Cc1ncccc1-n1nc(OCC(=O)O)c(Br)c1-c1cncc(F)c1 [II-38]
80%: Post-emergence action against VERPE in % ([1]; dosage 80 g/ha) | Post-emergence action against ABUTH in % [2] | Post-emergence action against AMARE in % [15] | Post-emergence action against PHBPU in % [18]
10%: Post-emergence action against TRZAS in % ([5]; 80 g/ha)
0%: Post-emergence action against ORYSA in % [8, 22] | Post-emergence action against ORYSA in % [8, 20] | Post-emergence action against ORYSA in % [8, 21] | Post-emergence action against ZEAMX in % (crop plant compatibility) [4] | Post-emergence action against ZEAMX in % ([4]; 80 g/ha) | Post-emergence action against ZEAMX in % ([4]; 320 g/ha) | Post-emergence action against TRZAS in % ([5]; 20 g/ha)
100%: Post-emergence action against ALOMY in % [14]
90%: Post-emergence action against ECHCG in % [12] | Post-emergence action against AVEFA in % [13] | Post-emergence action against VERPE in % ([1]; 320 g/ha, VERPE) | Post-emergence action against VIOTR in % ([3]; 80 g/ha) | Post-emergence action against VIOTR in % ([3]; 320 g/ha) | Post-emergence action against SETVI in % [16] | Post-emergence action against POLCO in % ([17]; dosage 320 g/ha)

CCOC(=O)COc1nn(-c2cccnc2C)c(-c2ccc(F)nc2)c1Br [II-46]
80%: Post-emergence action against ALOMY in % [14] | Post-emergence action against POLCO in % ([17]; dosage 320 g/ha)
90%: Post-emergence action against VERPE in % ([1]; 320 g/ha, VERPE) | Post-emergence action against VIOTR in % ([3]; 320 g/ha)
20%: Post-emergence action against ZEAMX in % ([4]; 320 g/ha)
0%: Post-emergence action against ORYSA in % [8, 22] | Post-emergence action against ORYSA in % [8, 20] | Post-emergence action against ORYSA in % [8, 21] | Post-emergence action against ZEAMX in % (crop plant compatibility) [4] | Post-emergence action against ZEAMX in % ([4]; 80 g/ha) | Post-emergence action against TRZAS in % ([5]; 20 g/ha) | Post-emergence action against TRZAS in % ([5]; 80 g/ha)

COCCOC(=O)COc1nn(-c2cccnc2C)c(-c2cncc(F)c2)c1Br [II-40]
10%: Post-emergence action against ZEAMX in % ([4]; 320 g/ha)
90%: Post-emergence action against ECHCG in % [12] | Post-emergence action against AVEFA in % [13] | Post-emergence action against VERPE in % ([1]; 320 g/ha, VERPE) | Post-emergence action against ALOMY in % [14] | Post-emergence action against VIOTR in % ([3]; 80 g/ha) | Post-emergence action against VIOTR in % ([3]; 320 g/ha) | Post-emergence action against SETVI in % [16]
20%: Post-emergence action against TRZAS in % ([5]; 80 g/ha)
80%: Post-emergence action against VERPE in % ([1]; dosage 80 g/ha) | Post-emergence action against ABUTH in % [2] | Post-emergence action against AMARE in % [15] | Post-emergence action against POLCO in % ([17]; dosage 80 g/ha) | Post-emergence action against POLCO in % ([17]; dosage 320 g/ha) | Post-emergence action against PHBPU in % [18]
0%: Post-emergence action against ORYSA in % [8, 22] | Post-emergence action against ORYSA in % [8, 20] | Post-emergence action against ORYSA in % [8, 21] | Post-emergence action against ZEAMX in % (crop plant compatibility) [4] | Post-emergence action against ZEAMX in % ([4]; 80 g/ha) | Post-emergence action against TRZAS in % ([5]; 20 g/ha)

COC(=O)CCOC(=O)COc1nn(-c2ccccn2)c(-c2ccc(F)nc2)c1C1CC1(F)F (stereo not shown) [Example I-248]
90%: Post-emergence action against PHBPU in % [18]
80%: Post-emergence action against VERPE in % ([1]; 320 g/ha, VERPE) | Post-emergence action against VIOTR in % ([3]; 80 g/ha) | Post-emergence action against VIOTR in % ([3]; 320 g/ha)
0%: Post-emergence action against ZEAMX in % (crop plant compatibility) [4] | Post-emergence action against ZEAMX in % ([4]; 80 g/ha) | Post-emergence action against TRZAS in % ([5]; 20 g/ha) | Post-emergence action against TRZAS in % ([5]; 80 g/ha)

COC(=O)C(C)COC(=O)COc1nn(-c2ncccc2C(F)(F)F)c(-c2ccc(F)nc2)c1C1CC1(F)F (stereo not shown) [Example I-268]
80%: Post-emergence action against VERPE in % ([1]; 320 g/ha, VERPE) | Post-emergence action against ABUTH in % [2] | Post-emergence action against VIOTR in % ([3]; 80 g/ha) | Post-emergence action against VIOTR in % ([3]; 320 g/ha) | Post-emergence action against PHBPU in % [18]
0%: Post-emergence action against ZEAMX in % (crop plant compatibility) [4] | Post-emergence action against ZEAMX in % ([4]; 80 g/ha) | Post-emergence action against TRZAS in % ([5]; 20 g/ha) | Post-emergence action against TRZAS in % ([5]; 80 g/ha)

COC(=O)[C@@H](C)Oc1nn(-c2ncccc2F)c(-c2ccnc(F)c2)c1I [Example I-138]
0%: Post-emergence action against ORYSA in % [8, 22] | Post-emergence action against ORYSA in % [8, 20]
80%: Post-emergence action against VERPE in % ([1]; 320 g/ha, VERPE) | Post-emergence action against ABUTH in % [2] | Post-emergence action against VIOTR in % ([3]; 80 g/ha) | Post-emergence action against VIOTR in % ([3]; 320 g/ha) | Post-emergence action against SETVI in % [16] | Post-emergence action against POLCO in % ([17]; dosage 320 g/ha) | Post-emergence action against PHBPU in % [18]
90%: Post-emergence action against ECHCG in % [12] | Post-emergence action against LOLRI in % [19]
10%: Post-emergence action against TRZAS in % ([5]; 20 g/ha)
20%: Post-emergence action against ORYSA in % [8, 21] | Post-emergence action against ZEAMX in % (crop plant compatibility) [4] | Post-emergence action against ZEAMX in % ([4]; 80 g/ha)

Cc1ncccc1-n1nc(OCC(=O)OCc2ccccn2)c(Br)c1-c1cncc(F)c1 [II-39]
90%: Post-emergence action against ECHCG in % [12] | Post-emergence action against AVEFA in % [13] | Post-emergence action against VERPE in % ([1]; 320 g/ha, VERPE) | Post-emergence action against ALOMY in % [14] | Post-emergence action against VIOTR in % ([3]; 320 g/ha) | Post-emergence action against SETVI in % [16] | Post-emergence action against PHBPU in % [18]
0%: Post-emergence action against ORYSA in % [8, 22] | Post-emergence action against ORYSA in % [8, 20] | Post-emergence action against ORYSA in % [8, 21] | Post-emergence action against ZEAMX in % (crop plant compatibility) [4] | Post-emergence action against ZEAMX in % ([4]; 80 g/ha) | Post-emergence action against TRZAS in % ([5]; 20 g/ha)
20%: Post-emergence action against ZEAMX in % ([4]; 320 g/ha) | Post-emergence action against TRZAS in % ([5]; 80 g/ha)
80%: Post-emergence action against VERPE in % ([1]; dosage 80 g/ha) | Post-emergence action against ABUTH in % [2] | Post-emergence action against AMARE in % [15] | Post-emergence action against VIOTR in % ([3]; 80 g/ha)

CCOC(=O)COc1nn(-c2ccccn2)c(-c2ccc(F)nc2)c1C1CC1(F)F (stereo not shown) [Example I-387]
0%: Post-emergence action against ZEAMX in % (crop plant compatibility) [4] | Post-emergence action against ZEAMX in % ([4]; 80 g/ha) | Post-emergence action against ZEAMX in % ([4]; 320 g/ha) | Post-emergence action against TRZAS in % ([5]; 20 g/ha) | Post-emergence action against TRZAS in % ([5]; 80 g/ha) | Post-emergence action against TRZAS in % ([5]; 320 g/ha)
